# According to ChEMBL document CHEMBL5724914, “Linking interpersonal differences in gut microbiota composition and drug biotransformation activity” (2024):
# Legend:
# [1] = human gut metagenome, 24 h, 2 µM
# [2] = (§1) The drug is tested on WLS-220 corresponding to human gut metagenome with ENA study accession number: PRJEB37062 and ENA sample accession number: ERS12561769 for biotransformation under anaerobic condition. The drug concentrations were measured over 9 timepoints collected between 0 and 24 hours of incubation by liquid-chromatography-coupled mass spectrometry (LC–MS); conditions: 2 µM
# [3] = as §1, with “WLS-039” for “WLS-220”, “ERS12561746” for “ERS12561769”; conditions: 2 µM
# [4] = human gut metagenome, 24 h, 2 µM; remark: listed apart in the source
# [5] = human gut metagenome, 24 h, 2 µM; remark: listed apart in the source
# [6] = human gut metagenome, 24 h, 2 µM; remark: listed apart in the source
# [7] = as §1, with “WLS-082” for “WLS-220”, “ERS12561751” for “ERS12561769”; conditions: 2 µM
# [8] = human gut metagenome, 24 h, 2 µM; remark: listed apart in the source
# [9] = human gut metagenome, 24 h, 2 µM; remark: listed apart in the source
# [10] = as §1, with “WLS-240” for “WLS-220”, “ERS12561773” for “ERS12561769”; conditions: 2 µM
# [11] = as §1, with “WLS-027” for “WLS-220”, “ERS12561744” for “ERS12561769”; conditions: 2 µM
# [12] = human gut metagenome, 24 h, 2 µM; remark: listed apart in the source
# [13] = as §1, with “WLS-052” for “WLS-220”, “ERS12561747” for “ERS12561769”; conditions: 2 µM
# [14] = human gut metagenome, 24 h, 2 µM; remark: listed apart in the source
# Note: call rule not given here.
Structure (SMILES),Bacterial Biotransformation [1],Bacterial Biotransformation [2],Bacterial Biotransformation [3],Bacterial Biotransformation [4],Bacterial Biotransformation [5],Bacterial Biotransformation [6],Bacterial Biotransformation [7],Bacterial Biotransformation [8],Bacterial Biotransformation [9],Bacterial Biotransformation [10],Bacterial Biotransformation [11],Bacterial Biotransformation [12],Bacterial Biotransformation [13],Bacterial Biotransformation [14]
CCCCC(=O)O[C@]1(C(=O)CO)[C@@H](C)C[C@H]2[C@@H]3CCC4=CC(=O)C=C[C@]4(C)[C@@]3(F)[C@@H](O)C[C@@]21C [BETAMETHASONE VALERATE],Compound metabolized,Compound metabolized,Compound metabolized,Compound metabolized,Compound NOT metabolized,Compound NOT metabolized,Compound metabolized,Compound NOT metabolized,Compound NOT metabolized,Compound metabolized,Compound metabolized,Compound metabolized,Compound metabolized,Compound metabolized
CC(=O)Oc1ccc(C(c2ccc(OC(C)=O)cc2)c2ccccn2)cc1 [BISACODYL],Compound metabolized,Compound metabolized,Compound metabolized,Compound metabolized,Compound metabolized,Compound metabolized,Compound metabolized,Compound metabolized,Compound metabolized,Compound metabolized,Compound metabolized,Compound metabolized,Compound metabolized,Compound metabolized
CNCC[C@H](Oc1cccc2ccccc12)c1cccs1 [DULOXETINE],Compound NOT metabolized,Compound NOT metabolized,Compound NOT metabolized,Compound NOT metabolized,Compound NOT metabolized,Compound NOT metabolized,Compound NOT metabolized,Compound NOT metabolized,Compound NOT metabolized,Compound NOT metabolized,Compound NOT metabolized,Compound metabolized,Compound NOT metabolized,Compound metabolized
COCCCC/C(=N\OCCN)c1ccc(C(F)(F)F)cc1.O=C(O)/C=C\C(=O)O [FLUVOXAMINE MALEATE],Compound NOT metabolized,Compound metabolized,Compound NOT metabolized,Compound NOT metabolized,Compound NOT metabolized,Compound metabolized,Compound NOT metabolized,Compound NOT metabolized,Compound NOT metabolized,Compound NOT metabolized,Compound NOT metabolized,Compound metabolized,Compound NOT metabolized,Compound NOT metabolized
CN1CCN(C2=Nc3ccccc3Oc3ccc(Cl)cc32)CC1.O=C(O)CCC(=O)O [LOXAPINE SUCCINATE],Compound NOT metabolized,Compound NOT metabolized,Compound NOT metabolized,Compound NOT metabolized,Compound NOT metabolized,Compound NOT metabolized,Compound NOT metabolized,Compound NOT metabolized,Compound NOT metabolized,Compound NOT metabolized,Compound NOT metabolized,Compound NOT metabolized,Compound NOT metabolized,Compound NOT metabolized
CCOC(=O)C1=C(C)NC(C)=C(C(=O)OC)C1c1cccc([N+](=O)[O-])c1 (configuration not stated) [NITRENDIPINE],Compound metabolized,Compound metabolized,Compound metabolized,Compound metabolized,Compound metabolized,Compound metabolized,Compound metabolized,Compound metabolized,Compound metabolized,Compound metabolized,Compound metabolized,Compound metabolized,Compound metabolized,Compound metabolized

# Other lines, results leading:
Bacterial Biotransformation [1],Bacterial Biotransformation [2],Bacterial Biotransformation [3],Bacterial Biotransformation [4],Bacterial Biotransformation [5],Bacterial Biotransformation [6],Bacterial Biotransformation [7],Bacterial Biotransformation [8],Bacterial Biotransformation [9],Bacterial Biotransformation [10],Bacterial Biotransformation [11],Bacterial Biotransformation [12],Bacterial Biotransformation [13],Bacterial Biotransformation [14],Structure (SMILES)
Compound NOT metabolized,Compound NOT metabolized,Compound NOT metabolized,Compound NOT metabolized,Compound NOT metabolized,Compound NOT metabolized,Compound NOT metabolized,Compound NOT metabolized,Compound NOT metabolized,Compound metabolized,Compound NOT metabolized,Compound metabolized,Compound NOT metabolized,Compound metabolized,CN(C)CCc1c[nH]c2ccc(CS(=O)(=O)N3CCCC3)cc12 [ALMOTRIPTAN]
Compound NOT metabolized,Compound metabolized,Compound metabolized,Compound NOT metabolized,Compound NOT metabolized,Compound metabolized,Compound metabolized,Compound metabolized,Compound NOT metabolized,Compound metabolized,Compound metabolized,Compound metabolized,Compound metabolized,Compound metabolized,Cc1nc(Nc2ncc(C(=O)Nc3c(C)cccc3Cl)s2)cc(N2CCN(CCO)CC2)n1 [DASATINIB ANHYDROUS]
Compound NOT metabolized,Compound NOT metabolized,Compound metabolized,Compound NOT metabolized,Compound NOT metabolized,Compound NOT metabolized,,Compound NOT metabolized,Compound NOT metabolized,Compound NOT metabolized,,Compound NOT metabolized,,Compound NOT metabolized,CC#CCn1c(N2CCC[C@@H](N)C2)nc2c1c(=O)n(Cc1nc(C)c3ccccc3n1)c(=O)n2C [LINAGLIPTIN]
Compound metabolized,Compound metabolized,Compound NOT metabolized,Compound NOT metabolized,Compound NOT metabolized,Compound NOT metabolized,Compound NOT metabolized,Compound NOT metabolized,Compound NOT metabolized,Compound metabolized,Compound metabolized,Compound metabolized,Compound metabolized,Compound metabolized,N#Cc1ccc2c(c1)N(CCCN1CCC(O)CC1)c1ccccc1S2 [PERICIAZINE]
